Data as given in article PMC11864979, “First-in-class ultralong-target-residence-time p38α inhibitors as a mitosis-targeted therapy for colorectal cancer” (Nature Cancer, 2025).
Like-named read-outs stand apart in the source and are kept apart here.

Legend:
Assay in all cases: selectivity profiling in a panel of 340 wild-type kinases (Reaction Biology Europe)
Format in all cases: binding
340 wild-type kinases [1] = biological target: T1, 340 wild-type kinases (Homo sapiens, UniProt Q9Y6E0)
T1 construct: purchased Reaction Biology Europe
T1 sequence (Q9Y6E0 whole entry): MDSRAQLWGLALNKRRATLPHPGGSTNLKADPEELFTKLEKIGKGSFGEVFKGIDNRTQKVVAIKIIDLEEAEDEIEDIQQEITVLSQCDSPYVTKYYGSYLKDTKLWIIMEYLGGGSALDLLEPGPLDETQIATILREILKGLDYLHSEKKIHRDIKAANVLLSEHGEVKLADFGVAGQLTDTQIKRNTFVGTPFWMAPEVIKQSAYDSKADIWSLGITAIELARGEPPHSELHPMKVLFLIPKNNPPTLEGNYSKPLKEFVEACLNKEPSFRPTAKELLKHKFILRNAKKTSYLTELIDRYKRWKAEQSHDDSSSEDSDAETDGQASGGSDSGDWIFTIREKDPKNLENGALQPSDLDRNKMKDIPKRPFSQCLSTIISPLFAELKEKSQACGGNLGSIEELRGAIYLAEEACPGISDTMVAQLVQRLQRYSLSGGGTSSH

340 wild-type kinases [2] = biological target: T2, 340 wild-type kinases (Homo sapiens, UniProt Q14004)
T2 construct: purchased Reaction Biology Europe
T2 sequence (Q14004 whole entry): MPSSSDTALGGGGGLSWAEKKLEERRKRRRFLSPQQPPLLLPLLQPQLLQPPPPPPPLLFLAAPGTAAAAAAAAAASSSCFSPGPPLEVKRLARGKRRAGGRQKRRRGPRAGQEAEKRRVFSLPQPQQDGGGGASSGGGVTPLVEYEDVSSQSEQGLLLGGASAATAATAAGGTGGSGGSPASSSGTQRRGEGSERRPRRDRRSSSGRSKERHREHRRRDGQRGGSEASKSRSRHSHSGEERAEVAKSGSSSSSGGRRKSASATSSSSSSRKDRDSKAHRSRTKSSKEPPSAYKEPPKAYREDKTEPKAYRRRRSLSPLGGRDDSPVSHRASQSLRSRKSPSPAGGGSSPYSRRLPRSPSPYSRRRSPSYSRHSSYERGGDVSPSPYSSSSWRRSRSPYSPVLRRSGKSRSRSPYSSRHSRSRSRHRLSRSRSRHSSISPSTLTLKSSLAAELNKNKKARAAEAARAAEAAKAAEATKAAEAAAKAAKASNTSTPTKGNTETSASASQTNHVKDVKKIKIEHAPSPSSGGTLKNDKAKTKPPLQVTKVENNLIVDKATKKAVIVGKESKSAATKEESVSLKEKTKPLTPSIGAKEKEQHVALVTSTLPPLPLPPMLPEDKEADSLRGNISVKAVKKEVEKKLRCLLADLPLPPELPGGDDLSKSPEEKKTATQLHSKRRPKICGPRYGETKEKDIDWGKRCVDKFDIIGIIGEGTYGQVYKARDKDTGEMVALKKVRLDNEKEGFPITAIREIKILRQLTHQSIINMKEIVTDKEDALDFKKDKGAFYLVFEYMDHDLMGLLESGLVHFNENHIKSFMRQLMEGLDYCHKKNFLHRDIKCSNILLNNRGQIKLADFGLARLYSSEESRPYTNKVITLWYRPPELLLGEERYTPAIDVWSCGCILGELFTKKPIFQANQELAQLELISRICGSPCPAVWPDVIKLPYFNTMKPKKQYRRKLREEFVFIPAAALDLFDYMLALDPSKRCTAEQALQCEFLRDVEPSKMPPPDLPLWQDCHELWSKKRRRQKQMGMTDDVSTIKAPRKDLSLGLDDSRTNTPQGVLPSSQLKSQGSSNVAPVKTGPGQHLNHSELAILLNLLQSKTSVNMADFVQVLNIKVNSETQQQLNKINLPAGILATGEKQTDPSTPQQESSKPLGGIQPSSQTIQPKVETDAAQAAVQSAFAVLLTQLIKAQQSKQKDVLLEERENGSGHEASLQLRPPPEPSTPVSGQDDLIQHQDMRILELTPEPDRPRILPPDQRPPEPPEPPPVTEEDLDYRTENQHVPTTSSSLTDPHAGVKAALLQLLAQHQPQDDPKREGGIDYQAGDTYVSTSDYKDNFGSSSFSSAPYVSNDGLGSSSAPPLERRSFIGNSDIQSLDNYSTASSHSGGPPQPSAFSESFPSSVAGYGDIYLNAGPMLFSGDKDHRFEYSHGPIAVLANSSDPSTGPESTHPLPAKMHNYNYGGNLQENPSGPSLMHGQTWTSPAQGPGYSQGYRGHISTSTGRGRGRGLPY

340 wild-type kinases [3] = biological target: T3, 340 wild-type kinases (Homo sapiens, UniProt Q7KZI7)
T3 construct: purchased Reaction Biology Europe
T3 sequence (Q7KZI7 whole entry): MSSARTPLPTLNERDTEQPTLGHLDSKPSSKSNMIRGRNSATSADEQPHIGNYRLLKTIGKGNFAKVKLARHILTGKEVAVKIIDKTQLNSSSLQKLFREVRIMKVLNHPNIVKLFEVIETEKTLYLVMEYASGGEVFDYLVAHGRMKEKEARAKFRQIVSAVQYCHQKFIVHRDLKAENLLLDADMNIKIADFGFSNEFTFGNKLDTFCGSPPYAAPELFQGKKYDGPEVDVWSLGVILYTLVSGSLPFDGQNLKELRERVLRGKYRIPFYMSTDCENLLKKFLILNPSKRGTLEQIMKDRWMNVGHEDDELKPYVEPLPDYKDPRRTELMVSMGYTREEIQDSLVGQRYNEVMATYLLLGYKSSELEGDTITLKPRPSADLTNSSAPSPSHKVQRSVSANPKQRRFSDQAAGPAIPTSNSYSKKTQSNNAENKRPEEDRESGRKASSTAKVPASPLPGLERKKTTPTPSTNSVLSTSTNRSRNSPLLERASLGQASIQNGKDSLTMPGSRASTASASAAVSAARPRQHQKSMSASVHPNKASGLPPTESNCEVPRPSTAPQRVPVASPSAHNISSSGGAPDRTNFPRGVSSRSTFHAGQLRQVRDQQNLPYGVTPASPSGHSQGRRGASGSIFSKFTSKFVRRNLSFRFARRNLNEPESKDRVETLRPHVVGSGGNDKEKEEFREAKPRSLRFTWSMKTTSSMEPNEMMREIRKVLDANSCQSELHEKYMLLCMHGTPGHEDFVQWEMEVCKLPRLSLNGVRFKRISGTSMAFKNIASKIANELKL

340 wild-type kinases [4] = biological target: T4, 340 wild-type kinases (Homo sapiens, UniProt P49759)
T4 construct: purchased Reaction Biology Europe
T4 sequence (P49759 whole entry): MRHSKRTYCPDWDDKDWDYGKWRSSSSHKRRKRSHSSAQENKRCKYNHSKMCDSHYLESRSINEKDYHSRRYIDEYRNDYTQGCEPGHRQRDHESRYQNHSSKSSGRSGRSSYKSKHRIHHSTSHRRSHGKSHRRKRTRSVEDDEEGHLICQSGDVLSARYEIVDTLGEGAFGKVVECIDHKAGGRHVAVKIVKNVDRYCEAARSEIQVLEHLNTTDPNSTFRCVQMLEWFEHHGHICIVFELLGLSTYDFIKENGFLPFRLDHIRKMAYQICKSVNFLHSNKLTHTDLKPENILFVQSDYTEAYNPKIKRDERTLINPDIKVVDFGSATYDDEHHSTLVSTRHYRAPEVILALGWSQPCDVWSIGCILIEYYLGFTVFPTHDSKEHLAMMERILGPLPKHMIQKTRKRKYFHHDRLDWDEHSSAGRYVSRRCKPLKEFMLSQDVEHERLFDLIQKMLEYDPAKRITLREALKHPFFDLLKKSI

340 wild-type kinases [5] = biological target: T5, 340 wild-type kinases (Homo sapiens, UniProt P24941)
T5 construct: purchased Reaction Biology Europe

340 wild-type kinases [6] = biological target: T6, 340 wild-type kinases (Homo sapiens, UniProt P34947)
T6 construct: purchased Reaction Biology Europe
T6 sequence (P34947 whole entry): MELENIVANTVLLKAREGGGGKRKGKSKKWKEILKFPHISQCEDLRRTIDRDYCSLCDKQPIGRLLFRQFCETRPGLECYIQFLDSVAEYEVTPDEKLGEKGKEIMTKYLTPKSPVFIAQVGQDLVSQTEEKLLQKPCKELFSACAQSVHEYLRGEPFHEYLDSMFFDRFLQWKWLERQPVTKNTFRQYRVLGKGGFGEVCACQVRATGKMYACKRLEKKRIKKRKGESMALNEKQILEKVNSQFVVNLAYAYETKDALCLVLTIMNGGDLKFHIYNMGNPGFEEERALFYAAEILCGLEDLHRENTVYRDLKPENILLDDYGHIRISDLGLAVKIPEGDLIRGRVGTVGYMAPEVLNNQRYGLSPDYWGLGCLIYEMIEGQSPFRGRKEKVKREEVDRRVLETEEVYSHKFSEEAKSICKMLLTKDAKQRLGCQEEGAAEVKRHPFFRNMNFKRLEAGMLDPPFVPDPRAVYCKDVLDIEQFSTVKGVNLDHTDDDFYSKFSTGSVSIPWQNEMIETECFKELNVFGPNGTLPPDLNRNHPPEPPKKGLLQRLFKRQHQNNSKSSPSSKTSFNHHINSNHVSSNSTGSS

340 wild-type kinases [7] = biological target: T7, 340 wild-type kinases (Homo sapiens, UniProt P42684)
T7 construct: purchased Reaction Biology Europe
T7 sequence (P42684 whole entry): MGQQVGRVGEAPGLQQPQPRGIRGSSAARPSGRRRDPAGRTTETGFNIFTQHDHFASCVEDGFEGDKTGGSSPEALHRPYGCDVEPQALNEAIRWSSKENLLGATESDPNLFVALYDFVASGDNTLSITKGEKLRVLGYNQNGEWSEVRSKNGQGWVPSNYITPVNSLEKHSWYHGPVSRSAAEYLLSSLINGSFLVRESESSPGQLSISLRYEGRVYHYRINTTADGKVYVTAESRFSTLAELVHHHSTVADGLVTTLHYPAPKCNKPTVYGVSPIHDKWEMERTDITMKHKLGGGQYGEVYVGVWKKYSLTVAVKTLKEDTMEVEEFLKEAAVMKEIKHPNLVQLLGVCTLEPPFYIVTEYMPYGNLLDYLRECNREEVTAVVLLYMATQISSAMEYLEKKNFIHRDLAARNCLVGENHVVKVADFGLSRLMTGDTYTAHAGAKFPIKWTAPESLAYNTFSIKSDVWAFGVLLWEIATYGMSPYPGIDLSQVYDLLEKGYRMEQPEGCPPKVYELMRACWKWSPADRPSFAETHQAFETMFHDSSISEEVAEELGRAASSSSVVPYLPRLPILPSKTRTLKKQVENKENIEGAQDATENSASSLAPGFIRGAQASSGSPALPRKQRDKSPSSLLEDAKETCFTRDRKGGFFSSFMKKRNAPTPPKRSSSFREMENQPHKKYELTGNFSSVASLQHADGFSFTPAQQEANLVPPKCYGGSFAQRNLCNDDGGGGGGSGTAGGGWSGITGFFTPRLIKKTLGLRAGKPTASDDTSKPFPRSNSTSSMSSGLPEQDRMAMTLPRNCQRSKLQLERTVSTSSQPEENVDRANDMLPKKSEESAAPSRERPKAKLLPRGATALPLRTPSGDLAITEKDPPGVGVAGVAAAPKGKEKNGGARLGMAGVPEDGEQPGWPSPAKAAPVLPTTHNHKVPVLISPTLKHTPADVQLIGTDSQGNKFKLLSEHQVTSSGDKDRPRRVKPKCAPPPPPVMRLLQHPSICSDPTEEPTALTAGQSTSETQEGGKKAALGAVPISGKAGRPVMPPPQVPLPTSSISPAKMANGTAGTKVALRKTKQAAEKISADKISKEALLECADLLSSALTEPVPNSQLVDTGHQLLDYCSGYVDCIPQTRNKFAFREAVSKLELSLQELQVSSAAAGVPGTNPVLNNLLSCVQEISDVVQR

340 wild-type kinases [8] = biological target: T8, 340 wild-type kinases (Homo sapiens, UniProt Q12851)
T8 construct: purchased Reaction Biology Europe
T8 sequence (Q12851 1-820): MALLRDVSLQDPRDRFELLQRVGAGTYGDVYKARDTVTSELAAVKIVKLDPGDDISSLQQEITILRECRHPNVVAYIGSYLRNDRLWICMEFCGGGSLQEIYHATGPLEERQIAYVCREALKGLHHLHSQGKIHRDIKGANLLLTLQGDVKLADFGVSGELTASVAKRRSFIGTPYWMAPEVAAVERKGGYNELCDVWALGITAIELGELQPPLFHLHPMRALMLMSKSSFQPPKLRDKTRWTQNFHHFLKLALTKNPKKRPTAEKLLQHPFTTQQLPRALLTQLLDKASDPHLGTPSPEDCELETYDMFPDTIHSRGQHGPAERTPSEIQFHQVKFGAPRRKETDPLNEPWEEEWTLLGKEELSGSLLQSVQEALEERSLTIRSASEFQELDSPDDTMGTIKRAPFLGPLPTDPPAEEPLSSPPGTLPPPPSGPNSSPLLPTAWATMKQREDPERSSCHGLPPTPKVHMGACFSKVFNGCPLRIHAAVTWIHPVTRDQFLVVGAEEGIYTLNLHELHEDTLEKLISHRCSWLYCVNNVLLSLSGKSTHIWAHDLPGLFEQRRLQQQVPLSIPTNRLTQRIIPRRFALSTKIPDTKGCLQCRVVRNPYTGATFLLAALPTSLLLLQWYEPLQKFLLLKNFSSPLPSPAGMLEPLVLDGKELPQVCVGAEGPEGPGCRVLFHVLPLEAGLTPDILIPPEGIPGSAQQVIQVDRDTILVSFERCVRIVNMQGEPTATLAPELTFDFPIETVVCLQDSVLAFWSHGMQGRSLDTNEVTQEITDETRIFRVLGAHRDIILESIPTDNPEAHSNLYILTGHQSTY

340 wild-type kinases [9] = biological target: T9, 340 wild-type kinases (Homo sapiens, UniProt Q5S007)
T9 construct: purchased Reaction Biology Europe

[10] = read-out: CDK13/CycK residual activity

## CNC(=O)c1ccc2c(c1)C(=O)c1ccc(Nc3ccc(F)c(NC(=O)C4CC4)c3)cc1CC2 [Compound 2015]
340 wild-type kinases [1]; 0.2 µM 2015, read-out: MST3 residual activity
  remaining activity at 0.2 µM: 119%
340 wild-type kinases [1]; 1 µM 2015, read-out: MST3 residual activity
  remaining activity at 1 µM: 117%
340 wild-type kinases [1]; MST3, 0.2 µM, read-out: residual activity
  remaining activity at 0.2 µM: 119%
340 wild-type kinases [1]; MST3, 1 µM, read-out: residual activity
  remaining activity at 1 µM: 117%
340 wild-type kinases [2]; [10]
  remaining activity at 0.2 µM: 87.3%
  remaining activity at 1 µM: 86.5%
340 wild-type kinases [2]; read-out: residual activity
  remaining activity at 0.2 µM: 87.3%
  remaining activity at 1 µM: 86.5%
340 wild-type kinases [3]; 0.2 µM 2015, read-out: MARK2 residual activity
  remaining activity at 0.2 µM: 101%
340 wild-type kinases [3]; 1 µM 2015, read-out: MARK2 residual activity
  remaining activity at 1 µM: 99.5%
340 wild-type kinases [3]; MARK2, 0.2 µM, read-out: residual activity
  remaining activity at 0.2 µM: 101%
340 wild-type kinases [3]; MARK2, 1 µM, read-out: residual activity
  remaining activity at 1 µM: 99.5%
340 wild-type kinases [4]; 0.2 µM 2015, read-out: CLK1 residual activity
  remaining activity at 0.2 µM: 98.6%
340 wild-type kinases [4]; 1 µM 2015, read-out: CLK1 residual activity
  remaining activity at 1 µM: 93%
340 wild-type kinases [4]; CLK1, 0.2 µM, read-out: residual activity
  remaining activity at 0.2 µM: 98.6%
340 wild-type kinases [4]; CLK1, 1 µM, read-out: residual activity
  remaining activity at 1 µM: 93%
340 wild-type kinases [5]; 0.2 µM 2015, read-out: CDK2/CycA2 residual activity
  remaining activity at 0.2 µM: 92.5%
340 wild-type kinases [5]; 0.2 µM 2015, read-out: CDK2/CycD1 residual activity
  remaining activity at 0.2 µM: 90.3%
340 wild-type kinases [5]; 0.2 µM 2015, read-out: CDK2/CycE1 residual activity
  remaining activity at 0.2 µM: 121%
340 wild-type kinases [5]; 1 µM 2015, read-out: CDK2/CycA2 residual activity
  remaining activity at 1 µM: 87.2%
340 wild-type kinases [5]; 1 µM 2015, read-out: CDK2/CycD1 residual activity
  remaining activity at 1 µM: 96.5%
340 wild-type kinases [5]; 1 µM 2015, read-out: CDK2/CycE1 residual activity
  remaining activity at 1 µM: 109%
340 wild-type kinases [5]; CDK2/CycA2, 0.2 µM, read-out: residual activity
  remaining activity at 0.2 µM: 92.5%
340 wild-type kinases [5]; CDK2/CycA2, 1 µM, read-out: residual activity
  remaining activity at 1 µM: 87.2%
340 wild-type kinases [5]; CDK2/CycD1, 0.2 µM, read-out: residual activity
  remaining activity at 0.2 µM: 90.3%
340 wild-type kinases [5]; CDK2/CycD1, 1 µM, read-out: residual activity
  remaining activity at 1 µM: 96.5%
340 wild-type kinases [5]; CDK2/CycE1, 0.2 µM, read-out: residual activity
  remaining activity at 0.2 µM: 121%
340 wild-type kinases [5]; CDK2/CycE1, 1 µM, read-out: residual activity
  remaining activity at 1 µM: 109%
340 wild-type kinases [6]; 0.2 µM 2015, read-out: GRK5 residual activity
  remaining activity at 0.2 µM: 106%
340 wild-type kinases [6]; 1 µM 2015, read-out: GRK5 residual activity
  remaining activity at 1 µM: 114%
340 wild-type kinases [6]; GRK5, 0.2 µM, read-out: residual activity
  remaining activity at 0.2 µM: 106%
340 wild-type kinases [6]; GRK5, 1 µM, read-out: residual activity
  remaining activity at 1 µM: 114%
340 wild-type kinases [7]; 0.2 µM 2015, read-out: ABL2 residual activity
  remaining activity at 0.2 µM: 107%
340 wild-type kinases [7]; 1 µM 2015, read-out: ABL2 residual activity
  remaining activity at 1 µM: 102%
340 wild-type kinases [7]; ABL2, 0.2 µM, read-out: residual activity
  remaining activity at 0.2 µM: 107%
340 wild-type kinases [7]; ABL2, 1 µM, read-out: residual activity
  remaining activity at 1 µM: 102%
340 wild-type kinases [8]; 0.2 µM 2015, read-out: MAP4K2 residual activity
  remaining activity at 0.2 µM: 109%
340 wild-type kinases [8]; 1 µM 2015, read-out: MAP4K2 residual activity
  remaining activity at 1 µM: 104%
340 wild-type kinases [8]; MAP4K2, 0.2 µM, read-out: residual activity
  remaining activity at 0.2 µM: 109%
340 wild-type kinases [8]; MAP4K2, 1 µM, read-out: residual activity
  remaining activity at 1 µM: 104%
340 wild-type kinases [9]; 0.2 µM 2015, read-out: LRRK2 residual activity
  remaining activity at 0.2 µM: 98.2%
340 wild-type kinases [9]; 1 µM 2015, read-out: LRRK2 residual activity
  remaining activity at 1 µM: 93.8%
340 wild-type kinases [9]; LRRK2, 0.2 µM, read-out: residual activity
  remaining activity at 0.2 µM: 98.2%
340 wild-type kinases [9]; LRRK2, 1 µM, read-out: residual activity
  remaining activity at 1 µM: 93.8%
